Experimental data: the NIST ThermoML archive (doi:10.1016/j.tca.2012.03.028)

Legend:
[1] = Crystal; Differential scanning calorimeter
[2] = Molar enthalpy of transition or fusion; conditions: Crystal; Differential scanning calorimeter

SMILES	Normal melting temperature [1] [°C]	Molar enthalpy of transition or fusion [2] [kJ/mol]
c1ccc(-c2ccccc2)cc1 [biphenyl]	69.0	18.5
O=C(O)C(c1ccccc1)c1ccccc1 [2,2-diphenylethanoic acid]	147.2	31.2
O=C(C(=O)c1ccccc1)c1ccccc1 [1,2-diphenylethanedione]	95	23.3
CC(=O)Nc1ccccc1 [N-phenylethanamide]	114.4	21.8

Continued, values first:

Normal melting temperature [1] [°C]	Molar enthalpy of transition or fusion [2] [kJ/mol]	SMILES
122.4	18	O=C(O)c1ccccc1 [benzoic acid]
80.2	18.8	c1ccc2ccccc2c1 [naphthalene]
41.8	19	O=C(Oc1ccccc1)c1ccccc1O [phenyl salicylate]
